The source of these data is patent US20240382475A1, “Quinazoline Derivative, Or Preparation Method Therefor And Use Thereof” (Zhejiang Hisun Pharmaceutical Co., Ltd., priority 2021, published 2024).

The structures appear in SMILES notation.

The subject of one series is NCI-H358 cells. The experiment in a line: Inhibition of NCI-H358 cell proliferation under 3D non-anchored conditions (CellTiter-Glo 3D). It is filed as cell-based. The settings on record: Homo sapiens, NCI-H358 cells (KRAS G12C mutation), 120 hours. Here is the method: The following method was used to determine the effects of the compounds of the present invention on NCI-H358 cell proliferation under three-dimensional (3D) non-anchored conditions. NCI-H358 cells (containing KRAS G12C mutation) were purchased from the Cell Resource Center of Shanghai Institutes for Biological Sciences, Chinese Academy of Sciences, and cultured in RPMI 1640 medium containing 10% fetal bovine serum, 100 U penicillin, 100 μg/mL streptomycin and 1 mM Sodium Pyruvate. The activities of the cells were determined by CellTiter-Glo® 3D Cell Viability Assay Kit (Promega, Art. No. G9683).
The experimental method was operated according to the steps in the kit instruction, which can be briefly described as follows: the test compounds were first dissolved in DMSO to prepare storage solutions of 10 mM, and then diluted with culture mediums to prepare test samples. The final concentrations of the compounds were 10000 nM to 0.15 nM. Cells in logarithmic phase were inoculated in an ultra-low adsorption 384-well cell culture plate (PerkinElmer, #3830) with 2000 cells per well, and the test compounds were added and cultured for 120 hours. After the culture was completed, 30 μL of CellTiter-Glo 3D detection solution was added to each well, shaken for 30 minutes and then stood for 120 minutes. Then, a Luminescence mode was used to read the luminescence values of each well of the samples on a microplate reader. By comparing with the numerical value of a control group (0.1% DMSO), the percentage inhibition rates of the compounds at each concentration were calculated, and the IC50 values of the compounds inhibiting cell proliferation were obtained by performing nonlinear regression analysis with logarithmic values of the compound concentration-inhibition rate by GraphPad Prism 5 software, which can be seen in Table 4.
On the technique in general: In ATP-based viability assays light output follows the ATP content of the culture.

The subject of the next series is p-ERK1/2 in DLD-1 cells. Description: Inhibition of p-ERK1/2 in DLD-1 cells (Cisbio Advanced phospho-ERK1/2 kit). The class given is cell-based. The settings on record: Homo sapiens; DLD-1 cells (KRAS G13D mutation), hEGF 5 nM stimulation; read-out: IC50 (nM) Inhibition on p-ERK½ in DLD-1 cells. An excerpt: The following method was used to determine the inhibition activities of the compounds of the present invention on p-ERK1/2 in DLD-1 cells. The Advanced phospho-ERK1/2 (Thr202/tyr2O4) kit (Art. No. 64AERPEH) from Cisbio was used in this method. Please refer to the kit instruction for detailed experimental operations. DLD-1 cells (containing KRAS G13D mutation) were purchased from the Cell Resource Center of Shanghai Institutes for Biological Sciences, Chinese Academy of Sciences.
The experimental process can be briefly described as follows: DLD-1 cells were cultured in RPMI 1640 complete medium containing 10% fetal bovine serum, 100 U penicillin, 100 μg/mL streptomycin and 1 mM Sodium Pyruvate. DLD-1 cells were plated in a 96-well plate at 30,000 cells per well, after cultured overnight in 5% CO2 incubator at 37° C. with complete culture medium. The test compounds were dissolved in DMSO to prepare storage solutions of 10 mM, and then diluted with RPMI 1640 basic mediums. 90 μL of RPMI 1640 basic mediums containing the test compounds at the corresponding concentration were added to each well. The final concentrations of the test compounds in the reaction system were 10,000 nM to 0.15 nM, and were placed in a cell culture incubator for 3 hours and 40 minutes. Subsequently, 10 μL of hEGF (purchased from Roche, Art. No. 11376454001) prepared with RPMI 1640 basic medium was added to a final concentration of 5 nM, and placed in the incubator for culturing for 20 minutes. The cell supernatant was discarded, and the cells were washed with PBS on ice-bath. Then, 45 μl of 1× cell phospho/total protein lysis buffer (component of Advanced phospho-ERK1/2 kit) was added to each well for lysis. The 96-well plate was placed on ice for 0.5 hours to lyse, and then the lysate was detected according to the instruction of the Advanced phospho-ERK1/2 (Thr202/tyr2O4) kit. Finally, the microplate reader was used in […] mode to measure the fluorescence intensity of each well emitting wavelengths of 620 nm and […] under the excitation wavelength of 304 nm, and the fluorescence intensity ratio 665/620 in each well was calculated. By comparing with the fluorescence intensity ratio of a control group (0.1% DMSO), the percentage inhibition rates of the test compounds at each concentration were calculated, and the IC50 values of the compounds were obtained by performing nonlinear regression analysis with logarithmic values of the compound concentration-inhibition rate by GraphPad Prism 5 software, which can be seen in Table 3.

The nature of series [1]: Pharmacokinetic evaluation in ICR mice. It is filed as in vivo. To be noted: male, mouse, plasma, PO 10 mg/kg. An excerpt: ICR normal mice were used as test animals, and LC/MS/MS was used to determine the drug concentrations at different moments in plasma of ICR mice by intragastric administration. The pharmacokinetic behavior of the compounds of the present invention in ICR mice was studied to evaluate the pharmacokinetic characteristics of the above compounds.
Compound 4, Compound 26 and Compound 32.
ICR mice, male, 27.8-38 g, were purchased from Zhejiang Vital River Laboratory Animal Technology Co., Ltd.
An appropriate amount of the compound was weighed, and DMA:30% Solutol HS-15:Saline=5:5:90 (v/v/v) was used as the solvent to prepare a fully dissolved solution, and then administered to obtain a 1 mg/mL colorless solution.
The ICR mice in the intragastric group of each compound to be tested (nine mice in each group) were fasted overnight followed by intragastric administration (administration dosage was 10 mg/kg and the administration volume was 10 mL/kg), and ate 4 hours after administration.
0.1 mL of blood was collected via orbit before administration and 0.25 hour, 0.5 hour, 1 hour, 2 hours, 4 hours, 8 hours, 12 hours, and 24 hours after administration, and placed in EDTA-K2 anticoagulant tubes. The collected blood samples were placed on ice, and plasma was separated by centrifugation (centrifugation condition: 1500 g, 10 minutes). The collected plasma samples were stored at −40˜−20° C. before analysis.
LC-MS/MS was used to determine the content of the compound to be tested in mouse plasma after intragastric administration.

A word on the IC50: it is the concentration that inhibits the measured activity by half. `COc1cc2nc(C)nc(N[C@H](C)c3cccc(C#N)c3C)c2cc1N1CCOCC1` [Compound 1, (R)-3-(1-((7-methoxy-2-methyl-6-morpholinoquinazolin-4-yl)amino)ethyl)-2-methylbenzonitrile]: the IC50 in the series with NCI-H358 cells turned out to be 78.3 nM; with p-ERK1/2 in DLD-1 cells it was 48.7 nM.
In the same order, the values of `COc1cc2nc(C)nc(N[C@H](C)c3cccc(C#N)c3C)c2cc1N1CCN(C(C)=O)CC1` [Compound 2, (R)-3-(1-((6-(4-acetylpiperazin-1-yl)-7-methoxy-2-methylquinazolin-4-yl)amino)ethyl)-2-methylbenzonitrile] are 49.6 nM and 65.4 nM.
The compound `COc1cc2nc(C)nc(N[C@H](C)c3cccc(C#N)c3C)c2cc1N1CCC2(CCOCC2)CC1` [Compound 4, (R)-3-(1-((7-methoxy-2-methyl-6-(3-oxa-9-azaspiro[5.5]undecan-9-yl)quinazolin-4-yl)amino)ethyl)-2-methylbenzonitrile] yielded an IC50 in the series on NCI-H358 cells of 7 nM. The AUC(0-t) in series [1] (read-out: Area under curve AUC0-t) worked out at 5820 ng·h/mL. The half-life in series [1] (read-out: Half-life T1/2 (converted)) was 51 min. Further, the Cmax in series [1] (read-out: Plasma concentration Cmax) turned out to be 2310 ng/mL.
For the compound `COc1cc2nc(C)nc(N[C@H](C)c3cccc(C#N)c3C)c2cc1N1CCC2(CC1)COC2` [Compound 5, (R)-3-(1-((7-methoxy-2-methyl-6-(2-oxa-7-azaspiro[3.5]nonan-7-yl)quinazolin-4-yl)amino)ethyl)-2-methylbenzonitrile], the figures for the IC50 in the series with NCI-H358 cells and in the series on p-ERK1/2 in DLD-1 cells were 10.7 nM and 66.1 nM, respectively.
For `COc1cc2nc(C)nc(N[C@H](C)c3cccc(C#N)c3C)c2cc1N1CCC2(CCN(C)C2=O)CC1` [Compound 7, (R)-3-(1-((7-methoxy-2-methyl-6-(2-methyl-1-oxo-2,8-diazaspiro[4.5]decan-8-yl)quinazolin-4-yl)amino)ethyl)-2-methylbenzonitrile], the IC50 with p-ERK1/2 in DLD-1 cells was found to be 31.1 nM.
As to `COc1cc2nc(C)nc(N[C@H](C)c3cccc(C#N)c3C)c2cc1N1CCC(C#N)CC1` [Compound 8, (R)-1-(4-((1-(3-cyano-2-methylphenyl)ethyl)amino)-7-methoxy-2-methylquinazolin-6-yl)piperidine-4-carbonitrile], the IC50 with p-ERK1/2 in DLD-1 cells stood at 38.2 nM.
For `COc1cc2nc(C)nc(N[C@H](C)c3cccc(C#N)c3C)c2cc1N1CCC(C)(O)CC1` [Compound 11, (R)-3-(1-((6-(4-hydroxy-4-methylpiperidin-1-yl)-7-methoxy-2-methylquinazolin-4-yl)amino)ethyl)-2-methylbenzonitrile], the IC50 in the series on NCI-H358 cells turned out to be 71.4 nM; in the series on p-ERK1/2 in DLD-1 cells it was 29.7 nM.
For `COc1cc2nc(C)nc(N[C@H](C)c3cccc(C#N)c3C)c2cc1N1CCC2(CC1)CN(C(C)=O)C2` [Compound 19, (R)-3-(1-((6-(2-acetyl-2,7-diazaspiro[3.5]nonan-7-yl)-7-methoxy-2-methylquinazolin-4-yl)amino)ethyl)-2-methylbenzonitrile], in that order: 21.2 nM and 46.3 nM.
